One experiment has as its system Erk1/2 phosphorylation. Nature of the experiment: Western blot of phospho-Erk1/2 in CHO-D2R cells. In kind it is cell-based, Chinese hamster. Particulars: 25 nM PD098059, 30 minutes before 100 nM quinpirole, 5 min. How it is done:
Cell lysates were prepared by incubating cells for 5 minutes on ice with a lysis buffer containing […] NaCl, 50 mM Tris, pH 7.5, 5 mM EDTA, 1% Triton, and a mixture of protease inhibitors. Cells were then scraped off plates and sonicated. The detergent-insoluble material was removed by microcentrifugation for 10 minutes at 4° C. An equal amount of protein was run on SDS gels (Novex, Carlsbad, Calif.) and transferred to nitrocellulose (Bio-Rad, Hercules, Calif.). […] The membrane was washed, incubated for 1 hour in TBS containing appropriate HRP-conjugated secondary antibodies, washed again, and developed with the ECL reagent (Amersham Pharmacia Biotech, Piscataway, N.J.).

Experiment [1] has as its system c-fos SRE activation in CHO cells stably expressing D2R. Nature of the experiment: SRE-luciferase reporter assay, quinpirole-stimulated c-fos SRE activation in CHO-D2R cells. The class given is cell-based, Chinese hamster.
[2] abbreviates: transfection of dominant-negative Rho family mutant or C3 (3 μg), 100 nM quinpirole.

Entries after “also recorded” stand apart in the source; their conditions may differ. Like-named read-outs stand apart in the source and are kept apart here.

This is an account of results in patent US20030119716A1, “Methods for screening, treating and diagnosing G-protein coupled receptor-related disorders and compositions thereof” (Wyeth, priority 2001, published 2003).

Take `COc1cccc(-c2cc(=O)c3ccccc3o2)c1N` [PD098059, reference compound]: the “effect on quinpirole-stimulated Erk1/2 phosphorylation” value in the experiment with Erk1/2 phosphorylation is listed as “completely suppressed; also recorded: inhibited”. Also, in experiment [1] (25 nM PD098059, 100 nM quinpirole), the “effect on quinpirole-stimulated SRE activation” value is “only partially suppressed; also recorded: inhibited”. In addition, the “diminution of quinpirole-stimulated SRE activity” value in experiment [1] (25 nM PD098059, 100 nM quinpirole, compared to vehicle) is “about 50%”.

With `COC[C@H]1OC(=O)c2coc3c2[C@@]1(C)C1=C(C3=O)[C@@H]2CCC(=O)[C@@]2(C)C[C@H]1OC(C)=O` [wortmannin, reference compound], the “effect on quinpirole-stimulated SRE activation” value in experiment [1] (50 nM wortmannin, 100 nM quinpirole) is recorded as “no effect”.

Regarding “CdcN17: dominant-negative mutant of Cdc42, Thr17 substituted with Asn”, the “effect on quinpirole-stimulated SRE activation” value in experiment [1] (setting [2]) is given as “suppressed”.

For the molecule “RhoN19: dominant-negative mutant of RhoA, Thr19 substituted with Asn”, in experiment [1] (setting [2]), the “effect on quinpirole-stimulated SRE activation” value is listed as “suppressed”.

For the molecule pertussis toxin [reference compound], the “effect on quinpirole-stimulated SRE activation” value in experiment [1] is given as “completely abolished; also recorded: abrogated”.
